From patent US20050142231A1, “Pharmaceutical activity and manufacturing method of the five-plant compound hypolipemic products” (priority 2003, published 2005)

Tested on: lecithin cholesterol acyltransferase (LCAT)
Assay: Effect upon activity of lecithin cholesterol acyltransferase in rats suffering from hyperlipemia
Format: in vivo, rat
Description: The original lecithin and cholesterol in the serum were used as substrates, which were kept warm for some time. Because of the effect of lecithin cholesterol acyltransferase (LCAT), cholesterolester (CE) in serum was increased, but free cholesterol (FC) decreased. Then cholesterol was oxidized by cholesterol oxidase and hydrogen peroxide was produced. The latter reacted with […] and phenol under the action of horseradish peroxidase to produce red quinone imide, which can be used for colorimetric analysis to determine the content of FC. The decrease in FC, ie, the esterification of cholesterol can indicate the activity of LCAT in magnitude. […]
(2) Two portions of 0.1 ml fresh serum were taken from each animal of each group and were preheated in water bath at 37° C. for five minutes, to one portion of which 3 ml cholesterol enzyme-linked reagent application solution was added (30 ml enzyme reaction solution for 1 ml cholesterol enzyme-linked reagent), mixed thoroughly and heated in water bath at 37° C. for 15 minutes while blank control tube and standard tube (0.05 ml standard cholesterol absolute alcohol solution) were made. […] OD was read and FC content was calculated in terms of Beer's law, which was the serum FC content before reaction. […] Then FC content was determined as above, expressed as OD, which was the serum FC content after reaction. […]

CCOC(=O)C(C)(C)Oc1ccc(Cl)cc1 [Astromid-s]
Effect on activity of LCAT (in words) (0.13 g/kg): not noticeable
LCAT activity (TC esterification nmol/ml/h) (hyperlipemia rat serum, dose 0.13 g/kg for seven days, x ± SD): 536 ± 277 nmol/mL/h
